Results on five compounds are retold here after patent US9695171B2, “3,4-disubstituted-1 H-pyrrolo[2,3-b]pyridines and 4,5-disubstituted-7H-pyrrolo[2,3-c]pyridazines as LRRK2 inhibitors” (Pfizer Inc., priority 2013, dated 2017).

For the experiment, the target named is T1, GST-tagged truncated LRRK2 (Homo sapiens, UniProt Q5S007).
T1 construct: GST-tagged truncated LRRK2 from Invitrogen (Cat # PV4874); GST; purchased Invitrogen PV4874
T1 sequence (Q5S007 970-2527 limits assumed): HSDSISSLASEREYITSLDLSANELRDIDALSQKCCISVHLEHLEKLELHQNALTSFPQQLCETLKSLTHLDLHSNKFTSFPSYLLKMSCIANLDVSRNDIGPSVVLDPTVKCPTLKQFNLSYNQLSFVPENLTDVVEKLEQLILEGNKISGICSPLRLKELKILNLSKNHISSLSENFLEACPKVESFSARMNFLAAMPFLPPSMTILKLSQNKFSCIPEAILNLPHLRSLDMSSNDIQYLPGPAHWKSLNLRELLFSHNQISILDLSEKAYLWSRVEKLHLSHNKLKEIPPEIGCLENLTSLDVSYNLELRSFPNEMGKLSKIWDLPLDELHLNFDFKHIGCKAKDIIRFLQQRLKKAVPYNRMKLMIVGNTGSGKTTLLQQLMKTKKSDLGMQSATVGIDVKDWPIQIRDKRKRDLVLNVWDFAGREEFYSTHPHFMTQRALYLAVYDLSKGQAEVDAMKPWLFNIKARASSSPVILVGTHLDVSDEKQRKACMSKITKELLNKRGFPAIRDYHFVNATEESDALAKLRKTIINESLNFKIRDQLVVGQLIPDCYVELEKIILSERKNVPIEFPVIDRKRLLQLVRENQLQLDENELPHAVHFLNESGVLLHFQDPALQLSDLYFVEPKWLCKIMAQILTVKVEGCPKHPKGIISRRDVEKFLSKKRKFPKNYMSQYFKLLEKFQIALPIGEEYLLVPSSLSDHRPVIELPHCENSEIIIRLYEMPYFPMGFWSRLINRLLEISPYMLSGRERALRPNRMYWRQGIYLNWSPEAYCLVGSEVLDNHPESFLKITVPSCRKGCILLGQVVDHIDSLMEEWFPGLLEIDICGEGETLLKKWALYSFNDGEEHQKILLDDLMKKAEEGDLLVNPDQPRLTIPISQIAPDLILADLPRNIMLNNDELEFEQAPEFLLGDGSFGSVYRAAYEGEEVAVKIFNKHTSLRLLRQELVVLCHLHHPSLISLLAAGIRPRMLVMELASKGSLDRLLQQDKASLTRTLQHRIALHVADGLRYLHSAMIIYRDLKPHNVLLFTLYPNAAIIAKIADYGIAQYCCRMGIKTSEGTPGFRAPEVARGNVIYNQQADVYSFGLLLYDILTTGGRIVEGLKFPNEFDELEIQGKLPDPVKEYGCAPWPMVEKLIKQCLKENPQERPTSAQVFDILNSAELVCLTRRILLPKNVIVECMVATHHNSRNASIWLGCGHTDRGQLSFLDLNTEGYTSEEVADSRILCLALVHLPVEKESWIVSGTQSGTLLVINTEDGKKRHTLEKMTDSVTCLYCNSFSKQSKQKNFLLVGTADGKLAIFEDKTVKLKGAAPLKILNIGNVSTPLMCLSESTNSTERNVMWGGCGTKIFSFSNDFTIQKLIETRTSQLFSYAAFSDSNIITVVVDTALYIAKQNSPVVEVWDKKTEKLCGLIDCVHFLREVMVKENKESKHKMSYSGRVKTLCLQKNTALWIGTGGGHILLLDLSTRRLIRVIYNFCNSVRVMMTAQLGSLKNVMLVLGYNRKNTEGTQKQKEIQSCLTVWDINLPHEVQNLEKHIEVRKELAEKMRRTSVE
The experiment is described as follows: LRRK2 kinase assay (Lantha Screen). Particulars: 1 mM ATP (head); a = geometric mean of >=4 determinations, b = single determination; read-out: LRRK2 LANTHA EC50 at 1 mM ATP; Geometric mean of 2-3 determinations unless otherwise indicated. Type of experiment: biochemical.
For `Cn1cc(-c2c[nH]c3nccc(-c4cccc(CC#N)c4)c23)cn1` [Example 108, {3-[3-(1-methyl-1H-pyrazol-4-yl)-1H-pyrrolo[2,3-b]pyridin-4-yl]phenyl}acetonitrile], the EC50 (in general, the concentration needed to bring the measured effect to its halfway point) was 185 nM. On to `Cn1cc(-c2c[nH]c3nccc(-c4cccc(C#N)c4)c23)cn1` [Example 109, 3-[3-(1-methyl-1H-pyrazol-4-yl)-1H-pyrrolo[2,3-b]pyridin-4-yl]benzonitrile], for which the EC50 amounted to 188 nM. Regarding `Cn1cc(-c2c[nH]c3nncc(N4CCOCC4)c23)cn1` [Example 110, 5-(1-methyl-1H-pyrazol-4-yl)-4-(morpholin-4-yl)-7H-pyrrolo[2,3-c]pyridazine], the EC50 was 201 nM. As to `COCc1cccc(-c2ccnc3[nH]cc(-c4cnn(C)c4)c23)c1` [Example 111, 4-[3-(methoxymethyl)phenyl]-3-(1-methyl-1H-pyrazol-4-yl)-1H-pyrrolo[2,3-b]pyridine], the EC50 was 234 nM.

As for `Cc1nnc(-c2cccc(-c3ccnc4[nH]cc(-c5cccc(C#N)c5)c34)c2)o1` [Example 112, 3-{4-[3-(5-methyl-1,3,4-oxadiazol-2-yl)phenyl]-1H-pyrrolo[2,3-b]pyridin-3-yl}benzonitrile], the half-maximal effective concentration (EC50) turned out to be 234 nM.
